According to patent publication US20160184795A1, “METHODS AND SYSTEMS FOR […]” (SHELL OIL COMPANY, priority 2014, published 2016):
Several values for one entry are separate records, joined by “and”; a condition that tells them apart may be missing. Equal entries are not always repeated.

Assay: Solubility of alkylphenol in water at digestion conditions
Type: physicochemical
Conditions: 240 C, 15 bar N2, 30 g xylenol + 30 g deionized water, phases separated hot, consecutive samples via bottom dip tube
Excerpt: Stirring was stopped, and phases were allowed to separate while hot, before sampling of all reactor contents via consecutive withdrawal of samples via a bottom dip tube.

**Q.** For `Cc1cccc(C)c1O` [xylenol, 2,6-dimethylphenol], which “weight fraction of xylenol in water, individual samples withdrawn” value is on record?
**A.** Its value is 18.6 weight percent and 26 weight percent and 32 weight percent.
